Key:
[1] = tested on: ERα+/PR− tumors; details: follow-up period of 6 years, postmenopausal women; cited from earlier work
[2] = tested on: HMGCR mRNA; test: qRT-PCR of HMGCR mRNA levels in MCF7 cells after Simvastatin/Tamoxifen treatment; format: cell-based; details: five days, 10 μM Simvastatin or 100 nM Tamoxifen, FIG. 15
Description: Total RNA was isolated using the mirVANA™ miRNA Isolation Kit (Ambion) and reverse transcribed using SuperScript II™ Reverse Transcriptase (Invitrogen) according to the manufacturer's instructions. […] Relative HMG-CoAR expression levels in breast cancer cell lines were calculated using the qBase real-time PCR relative quantification software with all samples normalized to 18s rRNA. Negative controls included a no template control and a no reverse transcriptase control. All qRT-PCR reactions were performed in triplicate.

[3] = tested on: HMGCR; details: MCF7 cells, five days, 10 μM Simvastatin, 100 nM Tamoxifen, or a combination of both, FIG. 14
[4] = tested on: ERα; details: MCF7 cells, five days, 10 μM Simvastatin, 100 nM Tamoxifen, or a combination of both, FIG. 14
[5] = tested on: ERα positive breast cancer; details: cited from earlier work
[6] = tested on: breast cancer; details: 5 years tamoxifen compared to no adjuvant treatment; cited from earlier work
[7] = tested on: stage II invasive breast cancer; test: Randomized premenopausal cohort: two years of adjuvant tamoxifen vs control, recurrence free survival (Kaplan-Meier, log-rank) by HMGCR IHC status; format: in vivo, human; details: for outcome of HMGCR positive and ER negative patients vs HMGCR negative and ER positive patients: tamoxifen treated cohort
Description: Between 1984 and 1991, 564 pre-menopausal women with primary breast cancer in the South and Southeast regions of Sweden were enrolled in a multi-centre clinical trial and randomly assigned to either two years of adjuvant tamoxifen (n=276) or a control group (n=288). […] The inclusion criteria were pre-menopausal patients, or patients younger than 50 years, with stage II (pT2 N0 M0, pT1-2 N1 M0) invasive breast cancer treated by modified mastectomy or breast conserving surgery with axillary lymph node dissection. Post-operative radiotherapy (50 Gy) was administered after breastconserving surgery and all lymph node-positive patients received locoregional radiotherapy. […] The study design is described in detail elsewhere (Rydén L et al, Eur J Cancer, 2005, 41(2): 256-64). Ethical permission was obtained from the Local Ethics Committees at Lund and Linköping Universities.
Tissue blocks from 500 of the 564 patients could be retrieved for TMA-construction. All cases had been histopathologically re-evaluated on hematoxylin and eosin stained slides. TMA:s were constructed by sampling 2×0.6 mm cores per case from areas representative of invasive cancer, using an manual arraying device (MTA-1, Beecher Inc, WI, USA). […] IHC staining of ER and PR had been performed previously. In line with current clinical praxis, a cut-off at 10% positive nuclei was used to define hormone receptor positively.
For statistical analyses, the cytoplasmic intensity (CI) level was evaluated, in line with what is described in Examples, Section 3 above. […] Two categories were defined: “HMGCR high” corresponding to CI=weak, moderate and strong and “HMGCR low” corresponding to CI=absent This classification of samples was used for RFS analysis according to the Kaplan-Meier estimator, and the log-rank test was used to compare survival in different strata. ER and PR negativity was defined as<10% positively staining nuclei, according to current clinical guidelines in Sweden. All statistical tests were two-sided, and p-values of<0.05 were considered significant. All calculations were made with the statistical package SPSS 17.0 (SPSS Inc. Illinois, USA).

SMILES: CC(C)(C#N)c1cc(Cn2cncn2)cc(C(C)(C)C#N)c1 [anastrozole]
- recurrence rate compared to patients treated with tamoxifen [1]: halved

SMILES: CC/C(=C(\c1ccccc1)c1ccc(OCCN(C)C)cc1)c1ccccc1 [tamoxifen]
- HMGCR levels of mRNA after treatment [2]: slight increase
- HMGCR expression (Western blot) [3]: slight HMGCR expression
- ERα expression (Western blot) [4]: no ERα expression
- fraction of patients who do not respond to tamoxifen treatment [5]: 30-40%
- reduction in breast cancer specific mortality [6]: 34%
- reduction in disease recurrence [6]: 41%
- effect on RFS based on the HMGCR level ([7]; ER negative tamoxifen treated subjects, FIG. 7a): positive effect on RFS
- RFS, HMGCR high category vs HMGCR low ([7]; ER positive tamoxifen treated subjects, FIG. 2a): significantly better RFS
- effect of tamoxifen treatment on RFS ([7]; HMGCR negative and ER negative subjects, FIG. 10b): no positive effect
- survival upon tamoxifen treatment vs no adjuvant endocrine treatment ([7]; HMGCR positive and ER negative subjects, FIG. 9a): improved survival
- tamoxifen impact on survival (RFS) ([7]; HMGCR positive and PR negative subjects, FIG. 12, not statistically significant): trend of tamoxifen impact on survival
- effect of tamoxifen treatment on RFS ([7]; HMGCR positive or ER positive subjects, FIG. 10a): significantly positive effect
- response to tamoxifen treatment (RFS) ([7]; PR negative and HMGCR negative subjects, FIG. 11b): no response
- response to tamoxifen treatment (RFS) ([7]; PR positive and HMGCR positive subjects, FIG. 11a): significant response
- RFS associated with HMGCR expression ([7]; lymph node positive patients who received tamoxifen, FIG. 4a): improved RFS
- survival of HMGCR positive subjects ([7]; node negative subgroups treated with tamoxifen, FIGS. 4b and 5b, too few patients for significance): trend of better survival
- outcome of HMGCR positive and ER negative patients vs HMGCR negative and ER positive patients ([7]; node positive subjects, FIG. 6a): better outcome
- recurrence free survival (RFS), HMGCR high category vs HMGCR low category ([7]; patients treated with adjuvant tamoxifen, FIG. 1a): significantly better RFS
- survival upon tamoxifen treatment vs no adjuvant endocrine treatment ([7]; patients with HMGCR high tumors, irrespective of ER status, FIG. 8a): significantly improved survival
- survival upon tamoxifen treatment vs no adjuvant endocrine treatment ([7]; patients with HMGCR low tumors, irrespective of ER status, FIG. 8b): no impact on survival
- outcome of HMGCR positive and ER negative patients vs HMGCR negative and ER positive patients ([7]; FIG. 3a): better outcome
